{"source": "patent US11717517B2", "about": "“LSD dose identification” (Universitätsspital Basel, priority 2020, dated 2023)", "key": {"healthy subjects [1]": {"test_system": "healthy subjects", "experiment": "Subjective drug effects (VAS, 5D-ASC, MEQ, AMRS), double-blind placebo-controlled cross-over study", "procedure": "(§1) Study design: The study used a double-blind, placebo-controlled, cross-over design with six experimental test sessions to investigate the responses to 1) placebo 2) 25 μg, 3) 50 μg, 4) 100 μg, 5) 200 μg LSD, and 6) 200 μg LSD after ketanserin (40 mg). The washout periods between sessions were at least 10 days. The study was registered at ClinicalTrials.gov (NCT03321136).\nParticipants: Sixteen healthy subjects (eight men and eight women; mean age±SD: 29±6.4 years; range: 25-52 years). Participants who were younger than 25 years old were excluded from participating in the study. Additional exclusion criteria were age >65 years, pregnancy (urine pregnancy test at screening and before each test session), personal or family (first-degree relative) history of major psychiatric disorders (assessed by the Semi-structured Clinical Interview for Diagnostic and Statistical Manual of Mental Disorders, 4th edition, Axis I disorders by a trained psychiatrist), the use of medications that can interfere with the study medications (e.g. antidepressants, antipsychotics, sedatives), chronic or acute physical illness (abnormal physical exam, electrocardiogram, or hematological and chemical blood analyses), tobacco smoking (>10 cigarettes/day), lifetime prevalence of illicit drug use >10 times (except for Δ^9-tetrahydrocannabinol), illicit drug use within the last 2 months, and illicit drug use during the study (determined by urine drug tests).\nThus, subjects ingested 2 mL of LSD solution and/or placebo (96% ethanol) per session: 1) placebo/placebo, 2) 25 μg LSD/placebo, 3) 25 μg LSD/25 μg LSD, 4) 100 μg LSD/placebo, 5) 100 μg LSD/100 μg LSD, 6. 100 μg LSD/100 μg LSD). Ketanserin was obtained as the marketed drug (KETENSIN®, Janssen) and encapsulated with opaque capsules to ensure blinding. Placebo consisted of identical opaque capsules filled with mannitol. Thus, blinding to treatment was guaranteed by using a double-dummy method, with identical capsules and vials that were filled with mannitol and ethanol, respectively, as placebo. At the end of each session and at the end of the study, the participants were asked to retrospectively guess their treatment assignment.\n(§2) Study procedures: The study included a screening, six 25 hour test sessions, and an end-of-study visit. The sessions were conducted in a calm standard hospital room. Only one research subject and one investigator were present during the test sessions. The test sessions began at 7:45 AM. The subjects then underwent baseline measurements. Ketanserin (40 mg) or placebo was administered at 8:00 AM. LSD or placebo was administered at 9:00 AM. The outcome measures were repeatedly assessed for 24 hours. A standardized lunch and dinner were served at 1:30 PM and 6:00 PM, respectively. The subjects were under constant supervision by an investigator until 1:00 AM. Thus, the subjects were never alone during the first 16 hours after drug administration, and the investigator was in a room next to the subject for up to 24 hours. The subjects were sent home the next day at 9:15 AM.\nSubjective drug effects: Subjective effects were assessed repeatedly using visual analog scales (VASs) 1 hour before and 0, 0.5, 1, 1.5, 2, 2.5, 3, 4, 5, 6, 7, 8, 9, 10, 11, 12, 14, 16, and 24 hours after LSD administration. […] The VASs were presented as 100-mm horizontal lines (0-100%), marked from “not at all” on the left to “extremely” on the right. The VASs for “concentration”, and “perception of time” were bidirectional (±50%). Marked from “not at all” on the left (−50), to “normal” in the middle (0), to “extremely” on the right (+50) for concentration and “slowed” (−50) and “racing” (+50) for “perception of time”."}, "[2]": {"experiment": "Stability of oral LSD solution (isomerization to iso-LSD)", "type": "physicochemical", "procedure": "Each dose of LSD was formulated as a solution to be administered orally in 1 ml of 96% ethanol according to GMP (batch BZ17-2; 25 μg and 100 μg vials) and stored free in argon-prefilled vials in the dark at 4° C. The exact analytically confirmed LSD contents (mean±SD) of the 25 μg and 100 μg formulation were […], respectively, after production. Stability of the formulation for longer than the study period was documented in an identically produced previous batch (batch BZ16). […] Vials that were stored at room temperature had higher iso-LSD contents of 0%, 3.1%, 3.4%, 6.7%, and 9.5% after 2, 4, 6, 12 and 24 months, respectively. The 100 μg LSD dose of that was used in the present study would correspond to a dose of approximately 125 μg of LSD tartrate including crystal water, which is the form of LSD that is more likely to be used when acquired illegally (i.e., in blotter form) for recreational use or was used in other recent studies (Bershad et al., 2019; Yanakieva et al., 2019)."}, "healthy subjects [3]": {"test_system": "healthy subjects", "experiment": "Autonomic and adverse effects (blood pressure, heart rate, body temperature, List of Complaints)", "procedure": "as §1, §2\nAutonomic, adverse, and endocrine effects: Blood pressure, heart rate, and tympanic body temperature were repeatedly measured 1 hour before and 0, 0.5, 1, 1.5, 2.5, 3, 4, 5, 6, 7, 8, 9, 10, 11, 12, 14, 16, and 24 hours after drug administration as previously described in detail (Hysek et al., 2010). […] This scale yields a total adverse effects score and reliably measures physical and general discomfort.\nData analysis: Peak (Emax and/or Emin) or peak change from baseline (ΔEmax) values were determined for repeated measures. The values were then analyzed using repeated-measures analysis of variance (ANOVA), with drug as within-subjects factor, followed by Tukey post hoc comparisons using Statistica 12 software (StatSoft, Tulsa, Okla., USA). The criterion for significance was p<0.05."}, "[4]": {"experiment": "Plasma drug concentrations and pharmacokinetic-pharmacodynamic modeling", "type": "in vivo, human", "procedure": "Plasma drug concentrations: Blood was collected into lithium heparin tubes 1 hour before and 0, 0.5, 1, 2, 3, 4, 6, 8, 10, 12, 14, 16, and 24 hours after LSD administration. The blood samples were immediately centrifuged, and the plasma was subsequently stored at −80° C. until analysis. Plasma concentrations of LSD and O-H-LSD were determined using a validated ultra-high-performance liquid chromatography tandem mass spectrometry method as described previously in detail (Holze et al., 2019).\nPharmacokinetic analyses and pharmacokinetic-pharmacodynamic modeling: Pharmacokinetic parameters were estimated using a one-compartment model with first-order input, first-order elimination, and no lag time in Phoenix WinNonlin 6.4 (Certara, Princeton, N.J., USA) as described previously in detail (Holze et al., 2019)."}, "[5]": {"test_system": "brain-derived neurotrophic factor (BDNF)", "protocol": "Plasma BDNF levels were measured at baseline and 6, 12, and 24 hours after drug administration using the Biosensis Mature BDNF Rapid ELISA Kit (Thebarton, Australia) (Akimoto et al., 2019)."}, "[6]": {"conditions": "after 200 μg dose as two 100 μg capsules; Steuer et al., 2017; cited from earlier work"}, "healthy humans": {"test_system": "healthy humans", "conditions": "cited from earlier work"}, "[7]": {"experiment": "Plasma exposure to LSD and iso-LSD after LSD capsules in previous studies", "conditions": "assuming similar bioavailability"}}, "note": "Like-named read-outs stand apart in the source and are kept apart here."}
{"smiles": "O=C(c1ccc(F)cc1)C1CCN(CCn2c(=O)[nH]c3ccccc3c2=O)CC1", "note": "[Ketanserin]", "values": [{"measurement": "effect of ketanserin on LSD effects at the 5-HT2a receptor", "setting": "healthy subjects [1]; ketanserin 40 mg given prior to 200 μg LSD", "value": "blocks LSD side effects"}]}
{"smiles": "CCN(CC)C(=O)[C@@H]1C=C2c3cccc4[nH]cc(c34)C[C@H]2N(C)C1", "note": "[LSD, D-lysergic acid diethylamide base]", "values": [{"measurement": "iso-LSD content (% of initial LSD content)", "setting": "[2]; solution in 96% ethanol, batch BZ16, 4° C., 4 months", "value": 0.1, "unit": "%"}, {"measurement": "iso-LSD content (% of initial LSD content)", "setting": "[2]; solution in 96% ethanol, batch BZ16, 4° C., 6 months", "value": 0.1, "unit": "%"}, {"measurement": "iso-LSD content (% of initial LSD content)", "setting": "[2]; solution in 96% ethanol, batch BZ16, 4° C., 12 months", "value": 1.3, "unit": "%"}, {"measurement": "iso-LSD content (% of initial LSD content)", "setting": "[2]; solution in 96% ethanol, batch BZ16, 4° C., 18 months", "value": 3.2, "unit": "%"}, {"measurement": "iso-LSD content (% of initial LSD content)", "setting": "[2]; solution in 96% ethanol, batch BZ16, 4° C., 24 months", "value": 3.6, "unit": "%"}, {"measurement": "other decomposition products", "setting": "[2]; solution stored at 4° C.", "value": "No other decomposition products were present"}, {"measurement": "iso-LSD content (% of initial LSD content)", "setting": "[2]; vials at room temperature, 2 months", "value": 0, "unit": "%"}, {"measurement": "iso-LSD content (% of initial LSD content)", "setting": "[2]; vials at room temperature, 4 months", "value": 3.1, "unit": "%"}, {"measurement": "iso-LSD content (% of initial LSD content)", "setting": "[2]; vials at room temperature, 6 months", "value": 3.4, "unit": "%"}, {"measurement": "iso-LSD content (% of initial LSD content)", "setting": "[2]; vials at room temperature, 12 months", "value": 6.7, "unit": "%"}, {"measurement": "iso-LSD content (% of initial LSD content)", "setting": "[2]; vials at room temperature, 24 months", "value": 9.5, "unit": "%"}, {"measurement": "VAS any drug effect compared with placebo", "setting": "healthy subjects [1]; 25 μg oral, P<0.05, 16 subjects", "value": "significant"}, {"measurement": "VAS good drug effect, dose dependence", "setting": "healthy subjects [1]; 25, 50, 100, 200 μg oral", "value": "dose-dependent good drug effects up to the 100 μg dose"}, {"measurement": "anxiety on the 5D-ASC and AMRS", "setting": "healthy subjects [1]; 100 and 200 μg, P<0.01 for both", "value": "only the 200 μg but not the 100 μg dose of LSD induced significant anxiety"}, {"measurement": "anxious ego-dissolution on the 5D-ASC, 200 μg versus 100 μg", "setting": "healthy subjects [1]; P<0.05", "value": "greater"}, {"measurement": "ego-dissolution on the VAS, 200 μg versus 100 μg", "setting": "healthy subjects [1]; P<0.05", "value": "significantly greater"}, {"measurement": "subjectively negative nadir effects, 200 μg versus 100 μg", "setting": "healthy subjects [1]; P<0.05", "value": "greater"}, {"measurement": "most scales (particularly positive subjective effects) with increasing doses", "setting": "healthy subjects [1]; at the 100 μg dose, no significant differences between 100 and 200 μg", "value": "ceiling effect was reached"}, {"measurement": "body temperature", "setting": "healthy subjects [3]; 25-200 μg", "value": "no effect"}, {"measurement": "heart rate", "setting": "healthy subjects [3]; 100 and 200 μg", "value": "moderately but significantly increased"}, {"measurement": "total acute (0-12 hours) adverse effects score on the LC compared with placebo and all other conditions", "setting": "healthy subjects [3]; 100 and 200 μg", "value": "increased"}, {"measurement": "severe adverse events", "setting": "healthy subjects [3]; all conditions", "value": "No severe adverse events were observed"}, {"measurement": "blood pressure", "setting": "healthy subjects [3]; doses of 50 μg or higher", "value": "moderately but significantly increased"}, {"measurement": "plasma concentrations of LSD, dose proportionality", "setting": "[4]; 25, 50, 100, 200 μg oral", "value": "increased proportionally with increasing doses"}, {"measurement": "VAS bad drug effect, 200 μg compared with 100 μg", "setting": "[4]; in vivo", "value": "higher bad drug effects"}, {"measurement": "effect duration", "setting": "[4]; with increasing doses", "value": "longer effect durations"}, {"measurement": "time to offset of the LSD response", "setting": "[4]; with increasing doses", "value": "increased"}, {"measurement": "time to onset of the LSD response", "setting": "[4]; with increasing doses", "value": "decreased"}, {"measurement": "BDNF plasma concentration compared with placebo", "setting": "[5]; 200 μg LSD", "value": "significantly increased"}, {"measurement": "time of peak BDNF plasma concentration", "setting": "[5]; 200 μg LSD", "value": 6, "unit": "h"}, {"measurement": "plasma BDNF", "setting": "[5]; lower doses of LSD (25, 50, 100 μg)", "value": "non-significant increases"}, {"measurement": "plasma AUC24", "setting": "[6]", "value": 21, "unit": "ng·h/mL"}, {"measurement": "subjects with bad drug effects (50% or more on a 0-100% scale at any time point)", "setting": "healthy humans; 0.1 mg LSD, 3 of 24 subjects (Dolder et al., 2017)", "value": 12.5, "unit": "%"}, {"measurement": "subjects with transient bad drug effects", "setting": "healthy humans; 0.1 mg LSD, 7 of 24 subjects (Holze et al., 2019)", "value": 29, "unit": "%"}, {"measurement": "subjects with bad drug effects (50% or more on a 0-100% scale at any time point)", "setting": "healthy humans; 0.2 mg LSD, 9 of 16 subjects (Dolder et al., 2017)", "value": 56, "unit": "%"}, {"measurement": "subjects with marked anxiety", "setting": "healthy humans; 0.2 mg LSD, sixteen healthy humans (Schmid et al., 2015)", "value": "two"}, {"measurement": "clinical response to 75 μg intravenous LSD versus oral 100 μg dose", "setting": "healthy humans; previous studies (Carhart-Harris et al., 2016a; Liechti, 2017)", "value": "not significantly different"}, {"measurement": "AUC∞ as % of value expected from confirmed 96 μg LSD doses", "setting": "[7]; 100 μg capsule dose", "value": 61, "unit": "%"}, {"measurement": "AUC∞ as % of value expected from confirmed 96 μg LSD doses", "setting": "[7]; 200 μg capsule dose", "value": 76, "unit": "%"}]}
{"smiles": "CCN(CC)C(=O)[C@H]1C=C2c3cccc4[nH]cc(c34)C[C@H]2N(C)C1", "note": "[iso-LSD]", "values": [{"measurement": "plasma AUC24", "setting": "[6]", "value": 9.2, "unit": "ng·h/mL"}]}
